# Experimental data: PubChem BioAssay (NCI)
#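 Cultured in 96-well plates, cells were exposed to test compound for 48 hours across five concentrations. Here, GI50 denotes the concentration required for 50% inhibition of growth. TGI: concentration producing complete growth inhibition.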
# Legend:
# Assay in all cases: DTP human tumour cell line panel, 48 h
# SK-MEL-28 melanoma = system: SK-MEL-28 melanoma
# NCI-H226 lung = system: NCI-H226 lung
# ACHN renal = system: ACHN renal
# TK-10 renal = system: TK-10 renal
# MOLT-4 leukemia = system: MOLT-4 leukemia
# MCF7 breast = system: MCF7 breast
# MALME-3M melanoma = system: MALME-3M melanoma
# LOX IMVI melanoma = system: LOX IMVI melanoma
# OVCAR-3 ovarian = system: OVCAR-3 ovarian
# M14 melanoma = system: M14 melanoma
# KM12 colon = system: KM12 colon
# UACC-62 melanoma = system: UACC-62 melanoma
# OVCAR-4 ovarian = system: OVCAR-4 ovarian
# HL-60(TB) leukemia = system: HL-60(TB) leukemia
# CCRF-CEM leukemia = system: CCRF-CEM leukemia
# MDA-MB-435 = system: MDA-MB-435
# 786-0 renal = system: 786-0 renal
# SF-539 CNS = system: SF-539 CNS
# NCI-H522 lung = system: NCI-H522 lung
# MDA-MB-231 breast = system: MDA-MB-231 breast
# HS 578T breast = system: HS 578T breast
# CAKI-1 renal = system: CAKI-1 renal
# NCI/ADR-RES ovarian = system: NCI/ADR-RES ovarian
# SK-OV-3 ovarian = system: SK-OV-3 ovarian
# SF-268 CNS = system: SF-268 CNS
# BT-549 breast = system: BT-549 breast
# SNB-19 CNS = system: SNB-19 CNS
# A549 NSCLC = system: A549 NSCLC
# RPMI-8226 leukemia = system: RPMI-8226 leukemia
# OVCAR-8 ovarian = system: OVCAR-8 ovarian
# OVCAR-5 ovarian = system: OVCAR-5 ovarian
# SR leukemia = system: SR leukemia
# SNB-75 CNS = system: SNB-75 CNS
# HCC-2998 colon = system: HCC-2998 colon
# HCT-116 colon = system: HCT-116 colon
# EKVX NSCLC = system: EKVX NSCLC
# SN12C renal = system: SN12C renal
# HCT-15 colon = system: HCT-15 colon
# HOP-62 NSCLC = system: HOP-62 NSCLC
# HT29 colon = system: HT29 colon
# NCI-H460 lung = system: NCI-H460 lung
# UACC-257 melanoma = system: UACC-257 melanoma
# T-47D breast = system: T-47D breast
# HOP-92 NSCLC = system: HOP-92 NSCLC
# UO-31 renal = system: UO-31 renal
# PC-3 prostate = system: PC-3 prostate
# SW-620 colon = system: SW-620 colon
# NCI-H23 lung = system: NCI-H23 lung
# DU-145 prostate = system: DU-145 prostate
# IGROV1 ovarian = system: IGROV1 ovarian
# SK-MEL-2 melanoma = system: SK-MEL-2 melanoma
# COLO 205 colon = system: COLO 205 colon
# U251 CNS = system: U251 CNS
# K-562 leukemia = system: K-562 leukemia
# RXF 393 renal = system: RXF 393 renal
compound,measurement,setting,value
CC1=C2C(=C[C@@](C)(C=O)[C@@H]2O)C(=O)[C@](C)(O)C12CC2,GI50,SK-MEL-28 melanoma,1960 nM
same,TGI,SK-MEL-28 melanoma,5030 nM
same,GI50,NCI-H226 lung,2070 nM
same,TGI,NCI-H226 lung,5090 nM
same,GI50,ACHN renal,1560 nM
same,TGI,ACHN renal,8200 nM
same,GI50,TK-10 renal,2700 nM
same,TGI,TK-10 renal,8770 nM
same,GI50,MOLT-4 leukemia,2180 nM
same,TGI,MOLT-4 leukemia,> 100000 nM
same,GI50,MCF7 breast,381 nM
same,TGI,MCF7 breast,10500 nM
same,GI50,MALME-3M melanoma,1610 nM
same,TGI,MALME-3M melanoma,3830 nM
same,GI50,LOX IMVI melanoma,1160 nM
same,TGI,LOX IMVI melanoma,4430 nM
same,GI50,OVCAR-3 ovarian,1350 nM
same,TGI,OVCAR-3 ovarian,5770 nM
same,GI50,M14 melanoma,1780 nM
same,TGI,M14 melanoma,5110 nM
same,GI50,KM12 colon,3090 nM
same,TGI,KM12 colon,22200 nM
same,GI50,UACC-62 melanoma,1520 nM
same,TGI,UACC-62 melanoma,3670 nM
same,GI50,OVCAR-4 ovarian,2040 nM
same,TGI,OVCAR-4 ovarian,7070 nM
same,GI50,HL-60(TB) leukemia,1470 nM
same,TGI,HL-60(TB) leukemia,6970 nM
same,GI50,CCRF-CEM leukemia,1740 nM
same,TGI,CCRF-CEM leukemia,> 100000 nM
same,GI50,MDA-MB-435,2070 nM
same,TGI,MDA-MB-435,4720 nM
same,GI50,786-0 renal,2400 nM
same,TGI,786-0 renal,10100 nM
same,GI50,SF-539 CNS,1480 nM
same,TGI,SF-539 CNS,3330 nM
same,GI50,NCI-H522 lung,1790 nM
same,TGI,NCI-H522 lung,4940 nM
same,GI50,MDA-MB-231 breast,2490 nM
same,TGI,MDA-MB-231 breast,7550 nM
same,GI50,HS 578T breast,1990 nM
same,TGI,HS 578T breast,5360 nM
same,GI50,CAKI-1 renal,541 nM
same,TGI,CAKI-1 renal,22000 nM
same,GI50,NCI/ADR-RES ovarian,1560 nM
same,TGI,NCI/ADR-RES ovarian,5700 nM
same,GI50,SK-OV-3 ovarian,2660 nM
same,TGI,SK-OV-3 ovarian,7790 nM
same,GI50,SF-268 CNS,2590 nM
same,TGI,SF-268 CNS,10300 nM
same,GI50,BT-549 breast,1590 nM
same,TGI,BT-549 breast,4730 nM
same,GI50,SNB-19 CNS,2500 nM
same,TGI,SNB-19 CNS,12500 nM
same,GI50,A549 NSCLC,476 nM
same,TGI,A549 NSCLC,11900 nM
same,GI50,RPMI-8226 leukemia,7280 nM
same,TGI,RPMI-8226 leukemia,52200 nM
same,GI50,OVCAR-8 ovarian,2390 nM
same,TGI,OVCAR-8 ovarian,> 100000 nM
same,GI50,OVCAR-5 ovarian,424 nM
same,TGI,OVCAR-5 ovarian,4440 nM
same,GI50,SR leukemia,2160 nM
same,TGI,SR leukemia,> 100000 nM
same,GI50,SNB-75 CNS,1580 nM
same,TGI,SNB-75 CNS,3950 nM
same,GI50,HCC-2998 colon,1380 nM
same,TGI,HCC-2998 colon,3480 nM
same,GI50,HCT-116 colon,569 nM
same,TGI,HCT-116 colon,> 100000 nM
same,GI50,EKVX NSCLC,2800 nM
same,TGI,EKVX NSCLC,8860 nM
same,GI50,SN12C renal,2850 nM
same,TGI,SN12C renal,51500 nM
same,GI50,HCT-15 colon,842 nM
same,TGI,HCT-15 colon,9100 nM
same,GI50,HOP-62 NSCLC,2530 nM
same,TGI,HOP-62 NSCLC,14100 nM
same,GI50,HT29 colon,1130 nM
same,TGI,HT29 colon,88000 nM
same,GI50,NCI-H460 lung,260 nM
same,TGI,NCI-H460 lung,710 nM
same,GI50,UACC-257 melanoma,3150 nM
same,TGI,UACC-257 melanoma,15200 nM
same,GI50,T-47D breast,2390 nM
same,TGI,T-47D breast,8860 nM
same,GI50,HOP-92 NSCLC,2390 nM
same,TGI,HOP-92 NSCLC,6680 nM
same,GI50,UO-31 renal,1700 nM
same,TGI,UO-31 renal,9010 nM
same,GI50,PC-3 prostate,1550 nM
same,TGI,PC-3 prostate,8260 nM
same,GI50,SW-620 colon,881 nM
same,TGI,SW-620 colon,> 100000 nM
same,GI50,NCI-H23 lung,666 nM
same,TGI,NCI-H23 lung,2450 nM
same,GI50,DU-145 prostate,340 nM
same,TGI,DU-145 prostate,10100 nM
same,GI50,IGROV1 ovarian,789 nM
same,TGI,IGROV1 ovarian,5760 nM
same,GI50,SK-MEL-2 melanoma,2080 nM
same,TGI,SK-MEL-2 melanoma,4580 nM
same,GI50,COLO 205 colon,1120 nM
same,TGI,COLO 205 colon,4680 nM
same,GI50,U251 CNS,1050 nM
same,TGI,U251 CNS,> 100000 nM
same,GI50,K-562 leukemia,2910 nM
same,TGI,K-562 leukemia,> 100000 nM
same,GI50,RXF 393 renal,277 nM
same,TGI,RXF 393 renal,799 nM
